ChEMBL document CHEMBL3885861, “Open TG-GATES”

Species on record: Rattus norvegicus
Experiment: Open TG-GATES - Regimen: Daily Repeat
Format: toxicity, organism-based, Sprague-Dawley
Set-up: regimen Daily Repeat, gender Male, age 6 weeks
Details: in vivo, po, 0 mg/kg, route gavage, dose level Control; for APTT / Bas / Eos / Fbg / Hb / Ht / Lym / MCH / MCHC / MCV / Mono / Neu / PT / Plat / RBC / Ret / WBC: tissue Blood; for KIDNEY_L / KIDNEY_R / KIDNEY_TOTAL: tissue Kidney; for LIVER: tissue Liver; for ALP / ALT / AST / BUN / CRE / Ca / Cl / DBIL / GLC / IP / K / LDH / Na / PL / RALB / TBIL / TC / TG / TP / gamma-GTP: tissue Plasma

## O=P1(N(CCCl)CCCl)NCCCO1 (stereo not drawn) [CYCLOPHOSPHAMIDE ANHYDROUS]
72 h, time 3 day
  TERMINAL_BW: 215.1 g
  APTT: 21.5 s
  Bas: 0%
  Eos: 0.8%
  Fbg: 293.2 mg/dL
  Hb: 13.3 g/dL
  Ht: 40.1%
  Lym: 81.4%
  MCH: 21.8 pg
  MCHC: 33.2%
  MCV: 65.7 fL
  Mono: 2.6%
  Neu: 14.6%
  PT: 16.8 s
  Plat: 112 x10_4/uL
  RBC: 611 x10_4/ul
  Ret: 6.7%
  WBC: 82.4 x10_2/uL
  KIDNEY_L: 0.9 g
  KIDNEY_R: 0.9 g
  KIDNEY_TOTAL: 1.9 g
  LIVER: 10.1 g
  ALP: 1749.2 IU/L
  ALT: 40.2 IU/L
  AST: 68 IU/L
  BUN: 15.4 mg/dL
  CRE: 0.2 mg/dL
  Ca: 10.8 mg/dL
  Cl: 106.2 meq/L
  DBIL: 0.002 mg/dL
  GLC: 182.6 mg/dL
  IP: 6.4 mg/dL
  K: 3.9 meq/L
  LDH: 190.6 IU/L
  Na: 142.6 meq/L
  PL: 133.8 mg/dL
  RALB: 3.1 g/dL
  TBIL: 0.018 mg/dL
  TC: 69.6 mg/dL
  TG: 84.2 mg/dL
  TP: 5.5 g/dL
  gamma-GTP: 1 IU/L
[…], time 7 day
  TERMINAL_BW: 254.4 g
  APTT: 21.7 s
  Bas: 0%
  Eos: 1%
  Fbg: 283.2 mg/dL
  Hb: 13.1 g/dL
  Ht: 39.7%
  Lym: 80%
  MCH: 20.7 pg
  MCHC: 33.1%
  MCV: 62.7 fL
  Mono: 2.4%
  Neu: 16.2%
  PT: 16.8 s
  Plat: 112.1 x10_4/uL
  RBC: 633.4 x10_4/ul
  Ret: 6.1%
  WBC: 106.9 x10_2/uL
  KIDNEY_L: 1.1 g
  KIDNEY_R: 1.1 g
  KIDNEY_TOTAL: 2.2 g
  LIVER: 11 g
  ALP: 1566.6 IU/L
  ALT: 44.8 IU/L
  AST: 77.6 IU/L
  BUN: 18.6 mg/dL
  CRE: 0.2 mg/dL
  Ca: 10.7 mg/dL
  Cl: 106 meq/L
  DBIL: 0 mg/dL
  GLC: 196.2 mg/dL
  IP: 7.9 mg/dL
  K: 4.4 meq/L
  LDH: 200.2 IU/L
  Na: 143.8 meq/L
  PL: 146.8 mg/dL
  RALB: 2.9 g/dL
  TBIL: 0.016 mg/dL
  TC: 73.8 mg/dL
  TG: 98.2 mg/dL
  TP: 5.4 g/dL
  gamma-GTP: 1.6 IU/L
[…], time 14 day
  TERMINAL_BW: 304.2 g
  APTT: 22 s
  Bas: 0%
  Eos: 1%
  Fbg: 307.8 mg/dL
  Hb: 13.7 g/dL
  Ht: 40.6%
  Lym: 81.4%
  MCH: 20.2 pg
  MCHC: 33.7%
  MCV: 60 fL
  Mono: 2.2%
  Neu: 14.6%
  PT: 15 s
  Plat: 118.8 x10_4/uL
  RBC: 676.6 x10_4/ul
  Ret: 4.8%
  WBC: 131.2 x10_2/uL
  KIDNEY_L: 1.2 g
  KIDNEY_R: 1.2 g
  KIDNEY_TOTAL: 2.4 g
  LIVER: 13.4 g
  ALP: 1394.4 IU/L
  ALT: 37.8 IU/L
  AST: 65.8 IU/L
  BUN: 18.2 mg/dL
  CRE: 0.2 mg/dL
  Ca: 10.6 mg/dL
  Cl: 107 meq/L
  DBIL: 0 mg/dL
  GLC: 182.6 mg/dL
  IP: 7 mg/dL
  K: 4 meq/L
  LDH: 152 IU/L
  Na: 143.4 meq/L
  PL: 140.4 mg/dL
  RALB: 2.9 g/dL
  TBIL: 0.012 mg/dL
  TC: 67.4 mg/dL
  TG: 147.4 mg/dL
  TP: 5.7 g/dL
  gamma-GTP: 1.4 IU/L
[…], time 28 day
  TERMINAL_BW: 368.5 g
  APTT: 23.8 s
  Bas: 0%
  Eos: 1%
  Fbg: 303.8 mg/dL
  Hb: 14.8 g/dL
  Ht: 43.6%
  Lym: 82.4%
  MCH: 19.2 pg
  MCHC: 34%
  MCV: 56.6 fL
  Mono: 2%
  Neu: 13.6%
  PT: 16.5 s
  Plat: 96.2 x10_4/uL
  RBC: 769.8 x10_4/ul
  Ret: 2.9%
  WBC: 112.3 x10_2/uL
  KIDNEY_L: 1.3 g
  KIDNEY_R: 1.3 g
  KIDNEY_TOTAL: 2.6 g
  LIVER: 14.2 g
  ALP: 1084 IU/L
  ALT: 40.4 IU/L
  AST: 66.4 IU/L
  BUN: 17.4 mg/dL
  CRE: 0.2 mg/dL
  Ca: 10.3 mg/dL
  Cl: 106.6 meq/L
  DBIL: 0 mg/dL
  GLC: 181.2 mg/dL
  IP: 6.4 mg/dL
  K: 4 meq/L
  LDH: 121.8 IU/L
  Na: 144 meq/L
  PL: 135.4 mg/dL
  RALB: 3.1 g/dL
  TBIL: 0.02 mg/dL
  TC: 67 mg/dL
  TG: 111.2 mg/dL
  TP: 6.2 g/dL
  gamma-GTP: 1.2 IU/L
